For 4 compounds, IC50 and inhibition results are on record in patent US6432985B1, “Neuroprotective substituted piperidine compounds with activity as NMDA NR2B subtype selective antagonists” (Hoffmann-La Roche Inc., priority 2000, dated 2002).

As a reminder, the IC50 is the point on the concentration scale where inhibition reaches its midpoint. Usually inhibition stands for the change of the read-out against control, counted positive when it falls.

Data set [1] concerns the target T1, NMDA NR2B subunit containing receptors (Rattus norvegicus, UniProt P35439+Q00960).
T1 construct: Membranes were prepared by homogenization of the whole brain minus cerebellum and medulla oblongata; from tissue; host or cells: rat whole brain minus cerebellum and medulla oblongata, membrane preparation
Nature of the data set: [3H]-Ro 25-6981 binding. The conditions noted are these: rat brain membranes; 5 nM 3H-Ro 25-6981; indicates affinity for NMDA NR2B subunit containing receptors; read-out: Inhibition of [3H]-Ro 25-6981 binding IC50. As to the method:
3H-Ro 25-6981 Binding(Ro 25-6981 is [R-(R*,S*)]-α-(4-Hydroxy-phenyl)-β-methyl-4-(phenyl-methyl)-1-piperidine propanol)
(§1) Male Füllinsdorf albino rats weighing between 150-200 g were used. Membranes were prepared by homogenization of the whole brain minus cerebellum and medulla oblongata with a Polytron (10,000 rpm, 30 seconds), in 25 volumes of a cold Tris-HCl 50 mM, EDTA 10 mM, pH 7.1 buffer. The homogenate was centrifuged at 48.000 g for 10 minutes at 4° C. The pellet was resuspended using the Polytron in the same volume of buffer and the homogenate was incubated at 37° C. for 10 minutes. After centrifugation the pellet was homogenized in the same buffer and frozen at −80° C. for at least 16 hours but not more than 10 days. For the binding assay the homogenate was thawed at 37° C., centrifuged and the pellet was washed three times as above in a Tris-HCl 5 mM, pH 7.4 cold buffer. The final pellet was resuspended in the same buffer and used at a final concentration of 200 μg of protein/ml.
[3H]-Ro 25-6981 binding experiments were performed using a Tris-HCl 50 mM, pH 7.4 buffer. For displacement experiments 5 nM of 3H-Ro 25-6981 were used and non specific binding was measured using 10 μM of tetrahydroisoquinoline and usually it accounts for 10% of the total. The incubation time was 2 hours at 4° C. and the assay was stopped by filtration on Whatman GF/B glass fiber filters (Unifilter-96, Packard, Zürich, Switzerland). The filters were washed 5 times with cold buffer. The radioactivity on the filter was counted on a Packard Top-count microplate scintillation counter after addition of […] of microscint 40 (Canberra Packard S.A., Zürich, Switzerland).
The effects of compounds were measured using a minimum of 8 concentrations and repeated at least once. The pooled normalized values were analyzed using a non-linear regression calculation program which provide IC50 with their relative upper and lower 95% confidence limits (RS1, BBN, USA).

Data set [2] concerns the target T2, recombinant human ERG potassium channels (Homo sapiens, UniProt Q12809).
T2 construct: expressed in transfected cells
Nature of the data set: Inhibition of the hERG K+ channel (whole-cell patch-clamp, CHO cells). It counts as cell-based. To be noted: recombinant human ERG channels expressed in CHO cells; concentrations higher than 10 μM not tested; read-out: Inhibition of hERG K+ current IC50. The source says:
(§2) Methods for Studying the Inhibition of the hERG K^+ Channel
(§3) CHO cells were stably transfected by a pcDNA3-hERG expression vector containing a SV40-neo cassette for selection. Cells were thinly plated into 35 mm dishes and used for the electrophysiological experiment ½-3 d later.
(§4) During the experiment the cells were continuously superfused with an extracellular saline containing (in mM): NaCl 150, KCl 10, MgCl2 1, CaCl2 3, HEPES 10 (pH=7.3 by addition of NaOH). A 10-mM stock solution of the test compound was made from pure DMSO. Test solution were made by at least 1000-fold dilution of the stock solution into the extracellular saline. The glass micropipettes for whole-cell patch-clamp recording were filled with a containing (in mM): KCl 110, BAPTA 10, HEPES 10, MgCl2 4.5, Na2ATP 4, Na2-phosphocreatine 20, creatine kinase 200 μg/ml (pH=7.3 by addition of KOH).
(§5) The whole-cell configuration of the patch-clamp technique was used for the experiments. Cells were clamped to −80 mV holding potential and repetitively (0.1 Hz) stimulated by a voltage pulse pattern consisting of a 1-s conditioning depolarisation to 20 mV immediately followed by a hyperpolarisation of 50 ms duration to −120 mV. The membrane current was recorded for at least 3 min (18 stimuli) before compound application (control), and then for another two 3-min intervals in presence of two different concentrations of the compound. The current amplitudes (Itest) at the end of each compound application interval were divided by the mean current amplitude (Icontrol) during the initial control period to calculate the percentage effect of the compound:
(§6) effect (%)=(1-Itest/Icontrol)·100.
(§7) Compound concentrations were chosen in decade steps (usually 1 and 10 μM) around the expected 50% inhibitory concentration (IC50). If after the first experiment the IC50 turned out to lie outside the range between the two chosen concentrations the concentrations were changed to bracket the IC50 in the following experiments. The compound was tested on at least three cells. Its IC50 was then estimated from the population of all percent-effect values by non-linear regression using the function […]). Concentrations higher than 10 μM were not tested.
In general terms: hERG is a cardiac potassium channel; its block is linked to QT prolongation.

For a further data set, the target named is T3, hERG K+ channel (Homo sapiens, UniProt Q12809).
T3 construct: expressed in transfected cells
T3 sequence (Q12809 whole entry): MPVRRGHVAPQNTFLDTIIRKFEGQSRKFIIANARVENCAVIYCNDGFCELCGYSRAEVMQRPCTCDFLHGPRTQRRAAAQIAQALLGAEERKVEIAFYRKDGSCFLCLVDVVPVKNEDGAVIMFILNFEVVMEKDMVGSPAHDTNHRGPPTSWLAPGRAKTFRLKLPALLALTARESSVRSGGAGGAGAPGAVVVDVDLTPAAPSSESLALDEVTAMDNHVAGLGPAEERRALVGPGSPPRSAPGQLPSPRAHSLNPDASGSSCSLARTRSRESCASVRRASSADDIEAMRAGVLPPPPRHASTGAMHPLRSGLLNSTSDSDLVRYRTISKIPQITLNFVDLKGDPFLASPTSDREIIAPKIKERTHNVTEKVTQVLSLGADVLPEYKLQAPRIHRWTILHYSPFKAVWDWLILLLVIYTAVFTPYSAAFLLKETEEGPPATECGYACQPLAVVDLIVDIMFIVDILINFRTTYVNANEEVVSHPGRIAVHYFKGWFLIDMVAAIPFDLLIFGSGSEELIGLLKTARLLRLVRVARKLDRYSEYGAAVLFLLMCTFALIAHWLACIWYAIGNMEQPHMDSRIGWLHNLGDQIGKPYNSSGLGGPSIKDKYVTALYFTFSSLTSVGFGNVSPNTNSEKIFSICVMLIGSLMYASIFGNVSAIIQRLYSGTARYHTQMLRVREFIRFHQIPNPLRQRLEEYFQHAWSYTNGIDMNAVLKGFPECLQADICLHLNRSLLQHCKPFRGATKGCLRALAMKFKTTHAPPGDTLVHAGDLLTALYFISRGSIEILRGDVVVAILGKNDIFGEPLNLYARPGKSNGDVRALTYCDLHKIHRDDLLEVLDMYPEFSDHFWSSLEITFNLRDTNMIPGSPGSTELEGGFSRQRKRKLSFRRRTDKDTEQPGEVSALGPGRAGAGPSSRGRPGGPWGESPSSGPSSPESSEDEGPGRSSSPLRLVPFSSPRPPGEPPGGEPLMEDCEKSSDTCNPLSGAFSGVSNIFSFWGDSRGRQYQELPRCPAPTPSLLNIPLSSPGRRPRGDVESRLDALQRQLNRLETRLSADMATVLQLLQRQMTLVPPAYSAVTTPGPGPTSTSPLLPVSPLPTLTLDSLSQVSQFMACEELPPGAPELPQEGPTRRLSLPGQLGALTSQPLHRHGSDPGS
The description is as above. It counts as cell-based. The conditions noted are these: CHO cells stably transfected with hERG (pcDNA3-hERG), pH 7.3; average effect at 10 μM; recombinant human ERG channels in CHO cells; read-out: Inhibition of hERG K+ current, effect (%) at 10 μM.
Excerpt: as §2, §3, §4, §5, §6, §7

A further data set deals with α1-adrenergic receptors. Nature of the data set: [3H]-Prazosin binding. The conditions noted are these: rat brain membranes; 0.2 nM 3H-Prazosine; indicates affinity for α1-adrenergic receptors; read-out: Inhibition of [3H]-Prazosin binding IC50. As to the method: as §1, with “a Plytron” for “a Polytron”, “[…]” for “200 μg”
3H-Prazosin binding experiments were performed using a Tris-HCl 50 mM, pH 7.4 buffer. For displacement experiments 0.2 nM of 3H-Prazosine were used and non specific binding was measured using […] of Chlorpromazine. The incubation time was 30 minutes at room temperature and the assay was stopped by filtration on Whatman GF/B glass fiber filters (Unifilter-96, Canberra Packard S.A., Zürich, Switzerland). The filters were washed 5 times with cold buffer. The radioactivity on the filter was counted on a Packard Top-count microplate scintillation counter after addition of […] of microscint 40 (Canberra Packard S.A., Zürich, Switzerland). The effects of compounds were measured using a minimum of 8 concentrations and repeated at least once. The pooled normalized values were analyzed using a non-linear regression calculation program which provide IC50 with their relative upper and lower 95% confidence limits (RS1, BBN, USA).

T2 sequence (Q12809 whole entry): as above
T1 sequence (Q00960 27-1482, other chains not shown): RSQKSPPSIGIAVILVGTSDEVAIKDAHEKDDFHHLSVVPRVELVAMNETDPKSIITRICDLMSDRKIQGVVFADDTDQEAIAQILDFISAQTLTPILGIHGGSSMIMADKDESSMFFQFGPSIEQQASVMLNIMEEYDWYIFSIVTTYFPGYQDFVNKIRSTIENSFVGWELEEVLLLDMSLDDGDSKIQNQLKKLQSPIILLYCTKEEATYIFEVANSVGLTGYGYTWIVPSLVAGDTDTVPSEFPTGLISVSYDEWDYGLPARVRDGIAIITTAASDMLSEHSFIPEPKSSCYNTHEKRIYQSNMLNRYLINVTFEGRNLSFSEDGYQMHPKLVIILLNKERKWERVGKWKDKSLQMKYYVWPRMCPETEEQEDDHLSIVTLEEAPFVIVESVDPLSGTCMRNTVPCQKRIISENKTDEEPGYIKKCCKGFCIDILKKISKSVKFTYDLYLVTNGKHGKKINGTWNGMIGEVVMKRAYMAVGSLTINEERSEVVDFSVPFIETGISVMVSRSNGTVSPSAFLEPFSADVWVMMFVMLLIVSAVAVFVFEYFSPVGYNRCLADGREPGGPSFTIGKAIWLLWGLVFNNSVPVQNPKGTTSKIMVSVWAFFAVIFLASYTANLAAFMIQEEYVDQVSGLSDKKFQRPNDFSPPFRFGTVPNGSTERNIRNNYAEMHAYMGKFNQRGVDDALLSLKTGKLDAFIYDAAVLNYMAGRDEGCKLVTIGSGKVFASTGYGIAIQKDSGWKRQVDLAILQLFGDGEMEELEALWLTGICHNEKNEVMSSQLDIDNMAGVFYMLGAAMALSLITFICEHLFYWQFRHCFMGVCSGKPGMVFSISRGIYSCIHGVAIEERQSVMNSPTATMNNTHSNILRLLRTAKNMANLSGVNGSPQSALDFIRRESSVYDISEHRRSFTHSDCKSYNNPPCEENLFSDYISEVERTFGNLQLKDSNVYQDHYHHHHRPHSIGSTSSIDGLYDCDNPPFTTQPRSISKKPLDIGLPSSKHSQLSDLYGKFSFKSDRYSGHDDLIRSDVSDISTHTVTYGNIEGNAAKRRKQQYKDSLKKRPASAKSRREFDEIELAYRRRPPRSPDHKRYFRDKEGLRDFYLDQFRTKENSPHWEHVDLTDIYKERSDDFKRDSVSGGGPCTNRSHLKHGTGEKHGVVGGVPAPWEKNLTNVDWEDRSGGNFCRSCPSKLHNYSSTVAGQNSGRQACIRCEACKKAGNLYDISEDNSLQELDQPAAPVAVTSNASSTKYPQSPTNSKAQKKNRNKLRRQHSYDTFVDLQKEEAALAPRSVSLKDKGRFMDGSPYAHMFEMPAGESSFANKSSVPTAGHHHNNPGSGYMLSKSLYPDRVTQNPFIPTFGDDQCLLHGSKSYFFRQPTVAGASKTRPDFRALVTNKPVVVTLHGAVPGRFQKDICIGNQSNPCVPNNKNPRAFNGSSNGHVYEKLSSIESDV

For `Oc1ccc(OCCN2CC[C@](O)(Cc3ccccc3)[C@H](O)C2)cc1` (racemic) [I (racemate), (3R,4R) and (3S,4S)-4-benzyl-1-[2-(4-hydroxy-phenoxy)-ethyl]-piperidine-3,4-diol], the IC50 is 0.045 µM in data set [1], above 10 µM in data set [2] and 27 µM on α1-adrenergic receptors. The inhibition at 3 min, 10 µM at hERG K+ channel was 45%.

As for `Cc1ccc(CC2(O)CCN(CCOc3ccc(O)cc3)CC2)cc1` [EP 824098, 1-[2-(4-hydroxy-phenoxy)-ethyl]-4-(4-methyl-benzyl)-piperidin-4-ol, reference compound], the IC50 in data set [1] was 0.01 µM; in data set [2], 0.69 µM; on α1-adrenergic receptors, 3.5 µM.

Consider `Oc1ccc(OCCN2CC[C@](O)(Cc3ccccc3)[C@H](O)C2)cc1` [I-1 (R,R), (3R,4R)-4-benzyl-1-[2-(4-hydroxy-phenoxy)-ethyl]-piperidine-3,4-diol], for which the figures for the IC50 (in data set [1]; in data set [2]; on α1-adrenergic receptors) were 0.038 µM, above 10 µM and 25 µM, respectively. Also, the inhibition at 3 min, 10 µM on hERG K+ channel was 44%.

As for `Oc1ccc(OCCN2CC[C@@](O)(Cc3ccccc3)[C@@H](O)C2)cc1` [I-2 (S,S), (3S,4S)-4-benzyl-1-[2-(4-hydroxy-phenoxy)-ethyl]-piperidine-3,4-diol], the IC50 in data set [1] is 0.039 µM; in data set [2] it was above 10 µM; at α1-adrenergic receptors, 30 µM. The inhibition at 3 min, 10 µM on hERG K+ channel stood at 40%.
